ChEMBL document CHEMBL1201862, “PubChem BioAssay data set” (2004)
Where a name gives a salt, the structure may show the parent alone. Activity calls are given as the source filed them.

How the values were obtained:
[1] = target: T1, Cytochrome P450 1A2 (Homo sapiens, UniProt P05177);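 further: PubChem cytochrome P450 panel assay, CYP1A2 panel member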
T1 sequence (P05177 whole entry): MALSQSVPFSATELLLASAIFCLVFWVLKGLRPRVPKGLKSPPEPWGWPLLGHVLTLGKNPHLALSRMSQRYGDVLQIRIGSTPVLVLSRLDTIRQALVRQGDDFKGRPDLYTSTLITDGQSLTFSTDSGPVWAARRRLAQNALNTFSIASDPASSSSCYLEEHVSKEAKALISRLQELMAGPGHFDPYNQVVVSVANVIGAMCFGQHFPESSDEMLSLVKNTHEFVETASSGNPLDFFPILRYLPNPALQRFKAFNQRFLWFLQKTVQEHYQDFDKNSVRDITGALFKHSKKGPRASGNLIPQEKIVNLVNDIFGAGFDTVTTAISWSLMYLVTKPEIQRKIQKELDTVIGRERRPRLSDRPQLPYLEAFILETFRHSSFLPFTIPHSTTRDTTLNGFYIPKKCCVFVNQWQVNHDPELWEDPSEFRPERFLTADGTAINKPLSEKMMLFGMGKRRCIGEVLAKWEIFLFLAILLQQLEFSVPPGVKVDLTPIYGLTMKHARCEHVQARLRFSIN

[2] = Luminescence Cell-Based Dose Response to Identify Activators of 5'UTR Stem-Loop Driven Prion Protein mRNA Translation in H4-C Neuroglioblastoma Cells. [Related pubchem assays: 1829 (Project Summary), 1814 (Primary HTS)]; type: functional
[3] = Luminescence Cell-Based Dose Confirmation HTS to Identify Activators of 5'UTR Stem-Loop Driven Alpha-Synuclein mRNA Translation in H4 Neuroglioblastoma Cells. [Related pubchem assays: 1829 (Project Summary), 1814 (Primary HTS)]; type: functional
[4] = target: Intestinal-type alkaline phosphatase (Homo sapiens, UniProt P09923); assay: human IAP inhibitors, dose response, biochemical, luminescent, uHTS hits, set 2 (AID 488793); type: functional
[5] = test system: Streptococcus; assay: Group A Streptococcus viability loss, dose response, counter-screen for streptokinase expression inhibitor project, luminescence, BacTiterGlo (AID 1915); type: functional, organism-based;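 further: potency for reduction of bacterial viability or growth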
[6] = target: T2, Insulin-degrading enzyme (Homo sapiens, UniProt P14735); assay: activators of recombinant IDE enzyme, dose response, counter-screen for IDE activator project, biochemical, fluorescence polarization (AID 588681)
T2 sequence (P14735 whole entry): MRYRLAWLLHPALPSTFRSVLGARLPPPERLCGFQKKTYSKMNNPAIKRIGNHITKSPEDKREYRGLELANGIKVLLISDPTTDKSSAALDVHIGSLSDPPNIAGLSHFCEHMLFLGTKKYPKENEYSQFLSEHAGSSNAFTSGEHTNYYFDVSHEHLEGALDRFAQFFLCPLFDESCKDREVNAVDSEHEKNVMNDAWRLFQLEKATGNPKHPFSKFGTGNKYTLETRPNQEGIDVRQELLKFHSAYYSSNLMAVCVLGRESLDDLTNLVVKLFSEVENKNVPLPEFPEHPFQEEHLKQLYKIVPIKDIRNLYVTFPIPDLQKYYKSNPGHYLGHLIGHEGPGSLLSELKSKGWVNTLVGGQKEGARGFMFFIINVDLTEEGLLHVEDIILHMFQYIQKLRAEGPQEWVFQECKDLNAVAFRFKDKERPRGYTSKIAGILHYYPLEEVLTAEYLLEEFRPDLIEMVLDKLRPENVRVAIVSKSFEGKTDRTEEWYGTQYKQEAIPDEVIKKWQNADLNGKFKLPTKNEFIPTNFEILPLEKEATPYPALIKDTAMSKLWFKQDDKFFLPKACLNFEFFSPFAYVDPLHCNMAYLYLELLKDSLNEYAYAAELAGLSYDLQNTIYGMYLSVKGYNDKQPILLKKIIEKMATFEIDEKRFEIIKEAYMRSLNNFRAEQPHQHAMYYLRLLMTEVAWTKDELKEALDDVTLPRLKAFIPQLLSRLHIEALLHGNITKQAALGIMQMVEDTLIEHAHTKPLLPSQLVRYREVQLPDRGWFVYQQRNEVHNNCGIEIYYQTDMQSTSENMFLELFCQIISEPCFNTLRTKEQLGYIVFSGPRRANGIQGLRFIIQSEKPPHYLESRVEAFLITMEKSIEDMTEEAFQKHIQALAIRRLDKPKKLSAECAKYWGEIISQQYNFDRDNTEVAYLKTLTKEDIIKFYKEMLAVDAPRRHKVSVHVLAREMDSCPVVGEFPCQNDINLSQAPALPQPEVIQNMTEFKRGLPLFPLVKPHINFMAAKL

[7] = M. tuberculosis H37Rv growth inhibitors, H37Rv strain (AID 1626); type: functional
[8] = target: Polyadenylate-binding protein 1 (Homo sapiens, UniProt P11940); assay: PABP1 MLLE–PAM2 interaction inhibitors, dose response, miRNA deadenylation inhibitor project, biochemical, fluorescence polarization, Cy5-PAM2 peptide, secondary (AID 602260); type: functional; details: read-out: IC50_Mean
[9] = target: Dual specificity tyrosine-phosphorylation-regulated kinase 4 (Homo sapiens, UniProt Q9NR20); type: functional
[10] = target: Serine/threonine-protein kinase DCLK1 (Homo sapiens, UniProt O15075); type: functional;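 further: affinity for DCLK1 (listed as DCAMKL1) measured as one member of a kinome-wide kinase profiling panel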
[11] = target: MAP kinase-interacting serine/threonine-protein kinase 2 (Homo sapiens, UniProt Q9HBH9); type: functional
[12] = target: LIM domain kinase 1 (Homo sapiens, UniProt P53667); assay: Navigating the Kinome. Panel member name: LIMK1; type: functional
[13] = target: MAP kinase-activated protein kinase 3 (Homo sapiens, UniProt Q16644); type: functional;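 further: value comes from a kinome-wide profiling panel in which MAPKAPK3 is one of the panel members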
[14] = target: Tyrosine-protein kinase Srms (Homo sapiens, UniProt Q9H3Y6); type: functional;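 further: SRMS measured as one member of a kinome-wide kinase profiling panel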
[15] = target: Tyrosine-protein kinase Fyn (Homo sapiens, UniProt P06241); type: functional
[16] = target: SRSF protein kinase 1 (Homo sapiens, UniProt Q96SB4); type: functional;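 further: measured as one member of a kinome-wide kinase profiling panel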
[17] = target: Megakaryocyte-associated tyrosine-protein kinase (Homo sapiens, UniProt P42679); type: functional;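 further: affinity measured as one member of a kinase panel (Navigating the Kinome) against MATK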
[18] = target: Homeodomain-interacting protein kinase 2 (Homo sapiens, UniProt Q9H2X6); type: functional;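 further: measured within a kinome-wide kinase profiling panel, HIPK2 being one panel member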
[19] = target: Casein kinase I isoform alpha (Homo sapiens, UniProt P48729); type: functional
[20] = target: Vascular endothelial growth factor receptor 1 (Homo sapiens, UniProt P17948); type: functional;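 further: measured within a kinome-wide profiling panel, FLT1 as the panel member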
[21] = target: Cyclin-dependent kinase 7 (Homo sapiens, UniProt P50613); type: functional;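 further: value comes from a kinome-wide kinase profiling panel in which CDK7 is one member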
[22] = target: Homeodomain-interacting protein kinase 4 (Homo sapiens, UniProt Q8NE63); type: functional
Sequence of Homeodomain-interacting protein kinase 4 (Q8NE63 whole entry): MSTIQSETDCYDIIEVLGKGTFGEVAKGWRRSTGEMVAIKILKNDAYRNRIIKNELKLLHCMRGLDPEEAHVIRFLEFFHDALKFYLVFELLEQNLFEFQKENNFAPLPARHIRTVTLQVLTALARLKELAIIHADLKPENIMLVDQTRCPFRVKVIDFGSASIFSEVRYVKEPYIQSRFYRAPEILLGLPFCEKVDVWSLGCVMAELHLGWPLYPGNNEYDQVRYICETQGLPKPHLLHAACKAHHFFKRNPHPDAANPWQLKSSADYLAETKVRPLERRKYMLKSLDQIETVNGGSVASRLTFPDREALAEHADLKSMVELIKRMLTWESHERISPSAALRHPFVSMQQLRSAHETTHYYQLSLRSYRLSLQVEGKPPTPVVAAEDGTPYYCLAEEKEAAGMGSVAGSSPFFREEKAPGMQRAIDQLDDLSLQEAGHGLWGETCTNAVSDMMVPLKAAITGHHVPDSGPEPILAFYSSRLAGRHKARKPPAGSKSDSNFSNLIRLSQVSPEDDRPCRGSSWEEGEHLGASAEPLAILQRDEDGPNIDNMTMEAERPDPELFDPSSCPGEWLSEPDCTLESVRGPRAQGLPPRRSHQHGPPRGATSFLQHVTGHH

Sequence of SRSF protein kinase 1 (Q96SB4 whole entry): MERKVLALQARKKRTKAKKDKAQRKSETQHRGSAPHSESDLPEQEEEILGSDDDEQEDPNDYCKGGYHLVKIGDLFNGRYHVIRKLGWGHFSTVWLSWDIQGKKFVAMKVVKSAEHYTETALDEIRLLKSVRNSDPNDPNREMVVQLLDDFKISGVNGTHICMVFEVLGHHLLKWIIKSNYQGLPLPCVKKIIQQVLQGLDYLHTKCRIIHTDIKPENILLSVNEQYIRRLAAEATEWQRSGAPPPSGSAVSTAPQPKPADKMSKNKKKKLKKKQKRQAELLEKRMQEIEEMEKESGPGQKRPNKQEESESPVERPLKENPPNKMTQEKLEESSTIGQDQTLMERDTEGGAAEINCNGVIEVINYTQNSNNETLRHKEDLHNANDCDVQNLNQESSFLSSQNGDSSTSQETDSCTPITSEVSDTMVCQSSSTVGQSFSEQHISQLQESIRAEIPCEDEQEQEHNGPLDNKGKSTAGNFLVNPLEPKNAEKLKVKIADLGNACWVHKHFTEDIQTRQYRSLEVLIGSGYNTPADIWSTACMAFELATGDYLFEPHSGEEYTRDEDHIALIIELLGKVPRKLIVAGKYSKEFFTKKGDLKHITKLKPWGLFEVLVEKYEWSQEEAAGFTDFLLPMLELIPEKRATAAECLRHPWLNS
Sequence of Serine/threonine-protein kinase DCLK1 (O15075 whole entry): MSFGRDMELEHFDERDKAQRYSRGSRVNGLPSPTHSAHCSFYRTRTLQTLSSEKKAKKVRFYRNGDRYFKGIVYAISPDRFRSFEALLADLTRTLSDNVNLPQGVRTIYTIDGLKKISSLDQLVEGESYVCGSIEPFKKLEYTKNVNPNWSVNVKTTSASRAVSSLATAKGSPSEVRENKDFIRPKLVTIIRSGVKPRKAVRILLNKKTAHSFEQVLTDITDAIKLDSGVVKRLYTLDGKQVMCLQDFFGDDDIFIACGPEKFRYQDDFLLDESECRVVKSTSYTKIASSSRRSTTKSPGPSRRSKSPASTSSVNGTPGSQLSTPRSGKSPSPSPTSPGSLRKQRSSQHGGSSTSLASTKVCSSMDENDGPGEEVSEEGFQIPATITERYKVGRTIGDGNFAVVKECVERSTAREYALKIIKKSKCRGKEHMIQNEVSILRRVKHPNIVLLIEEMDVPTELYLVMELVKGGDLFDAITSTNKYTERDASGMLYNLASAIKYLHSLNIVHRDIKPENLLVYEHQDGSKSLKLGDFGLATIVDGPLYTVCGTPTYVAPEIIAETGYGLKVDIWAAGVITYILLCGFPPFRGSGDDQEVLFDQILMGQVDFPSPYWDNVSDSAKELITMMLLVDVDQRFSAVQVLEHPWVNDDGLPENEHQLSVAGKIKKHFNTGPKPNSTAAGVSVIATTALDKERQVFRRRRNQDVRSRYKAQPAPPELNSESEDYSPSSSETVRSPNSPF
Sequence of Tyrosine-protein kinase Fyn (P06241 whole entry): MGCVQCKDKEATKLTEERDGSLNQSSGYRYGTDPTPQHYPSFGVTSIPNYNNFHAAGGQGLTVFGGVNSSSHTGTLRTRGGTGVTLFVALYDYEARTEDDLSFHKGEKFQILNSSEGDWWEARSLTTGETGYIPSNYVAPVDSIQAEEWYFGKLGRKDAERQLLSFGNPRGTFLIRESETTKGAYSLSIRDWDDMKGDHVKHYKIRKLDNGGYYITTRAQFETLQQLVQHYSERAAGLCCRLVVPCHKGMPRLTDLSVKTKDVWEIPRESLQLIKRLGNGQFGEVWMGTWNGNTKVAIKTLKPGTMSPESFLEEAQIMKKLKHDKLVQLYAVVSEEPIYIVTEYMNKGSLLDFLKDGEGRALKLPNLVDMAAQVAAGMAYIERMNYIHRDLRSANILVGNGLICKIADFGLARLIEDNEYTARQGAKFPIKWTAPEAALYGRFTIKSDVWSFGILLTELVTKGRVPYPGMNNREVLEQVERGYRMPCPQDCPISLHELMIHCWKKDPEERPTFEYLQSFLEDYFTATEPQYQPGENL
Sequence of Dual specificity tyrosine-phosphorylation-regulated kinase 4 (Q9NR20 whole entry): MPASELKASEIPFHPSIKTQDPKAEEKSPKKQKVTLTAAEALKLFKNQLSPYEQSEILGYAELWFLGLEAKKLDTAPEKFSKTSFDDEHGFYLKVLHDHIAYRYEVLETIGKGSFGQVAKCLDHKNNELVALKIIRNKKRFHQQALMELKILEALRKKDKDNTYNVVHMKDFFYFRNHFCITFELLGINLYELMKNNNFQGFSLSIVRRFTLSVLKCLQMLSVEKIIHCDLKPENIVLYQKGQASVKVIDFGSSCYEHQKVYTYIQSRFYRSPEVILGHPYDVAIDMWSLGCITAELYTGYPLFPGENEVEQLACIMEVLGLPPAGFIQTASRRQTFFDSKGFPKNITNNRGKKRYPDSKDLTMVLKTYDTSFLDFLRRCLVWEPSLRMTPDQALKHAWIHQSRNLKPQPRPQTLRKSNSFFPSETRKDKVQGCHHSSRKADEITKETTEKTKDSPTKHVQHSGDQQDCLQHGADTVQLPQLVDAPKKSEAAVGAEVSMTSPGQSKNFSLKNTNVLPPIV
Sequence of MAP kinase-interacting serine/threonine-protein kinase 2 (Q9HBH9 whole entry, the tested form may be a part): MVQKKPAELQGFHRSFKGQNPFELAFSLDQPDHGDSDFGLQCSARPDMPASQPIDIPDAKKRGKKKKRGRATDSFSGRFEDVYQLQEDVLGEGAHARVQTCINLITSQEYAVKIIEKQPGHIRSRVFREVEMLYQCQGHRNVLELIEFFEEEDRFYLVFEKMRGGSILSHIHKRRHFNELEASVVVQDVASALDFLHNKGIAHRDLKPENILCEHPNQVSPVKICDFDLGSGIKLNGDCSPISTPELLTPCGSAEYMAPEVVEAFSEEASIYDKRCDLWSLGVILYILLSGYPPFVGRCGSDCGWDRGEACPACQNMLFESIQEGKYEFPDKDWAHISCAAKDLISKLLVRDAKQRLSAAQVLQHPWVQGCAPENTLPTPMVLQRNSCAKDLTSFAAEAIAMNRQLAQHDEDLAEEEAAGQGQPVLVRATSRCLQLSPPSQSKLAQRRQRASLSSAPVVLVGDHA
Sequence of MAP kinase-activated protein kinase 3 (Q16644 whole entry): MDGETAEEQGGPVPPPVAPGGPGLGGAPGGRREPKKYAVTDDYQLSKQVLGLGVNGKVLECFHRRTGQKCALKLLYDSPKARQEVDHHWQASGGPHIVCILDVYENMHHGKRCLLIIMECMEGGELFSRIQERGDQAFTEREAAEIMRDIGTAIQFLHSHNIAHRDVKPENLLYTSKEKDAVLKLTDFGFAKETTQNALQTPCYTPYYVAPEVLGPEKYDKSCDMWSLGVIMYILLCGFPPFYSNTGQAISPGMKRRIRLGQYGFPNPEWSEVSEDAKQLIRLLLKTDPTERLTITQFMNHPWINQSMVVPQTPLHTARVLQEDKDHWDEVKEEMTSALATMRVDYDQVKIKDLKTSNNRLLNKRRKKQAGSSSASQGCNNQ
Sequence of LIM domain kinase 1 (P53667 whole entry, the tested form may be a part): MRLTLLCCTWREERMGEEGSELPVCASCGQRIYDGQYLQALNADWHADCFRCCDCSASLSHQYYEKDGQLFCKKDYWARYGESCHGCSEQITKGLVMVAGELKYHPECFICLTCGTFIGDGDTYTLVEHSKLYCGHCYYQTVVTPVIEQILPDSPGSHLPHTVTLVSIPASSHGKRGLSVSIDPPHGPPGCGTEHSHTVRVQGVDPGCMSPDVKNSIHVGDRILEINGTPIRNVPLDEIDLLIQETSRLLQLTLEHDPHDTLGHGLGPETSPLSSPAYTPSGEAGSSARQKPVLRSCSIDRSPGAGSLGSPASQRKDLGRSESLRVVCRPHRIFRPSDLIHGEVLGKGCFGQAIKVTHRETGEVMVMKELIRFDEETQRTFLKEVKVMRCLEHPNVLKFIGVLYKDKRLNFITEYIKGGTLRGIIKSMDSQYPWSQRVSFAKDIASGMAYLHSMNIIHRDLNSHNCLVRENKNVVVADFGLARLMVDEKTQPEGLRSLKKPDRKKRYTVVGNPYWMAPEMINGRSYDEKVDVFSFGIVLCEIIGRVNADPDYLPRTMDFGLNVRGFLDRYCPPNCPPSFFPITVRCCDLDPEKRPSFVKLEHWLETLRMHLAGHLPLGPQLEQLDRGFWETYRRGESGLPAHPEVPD
Sequence of Casein kinase I isoform alpha (P48729 whole entry, canonical isoform): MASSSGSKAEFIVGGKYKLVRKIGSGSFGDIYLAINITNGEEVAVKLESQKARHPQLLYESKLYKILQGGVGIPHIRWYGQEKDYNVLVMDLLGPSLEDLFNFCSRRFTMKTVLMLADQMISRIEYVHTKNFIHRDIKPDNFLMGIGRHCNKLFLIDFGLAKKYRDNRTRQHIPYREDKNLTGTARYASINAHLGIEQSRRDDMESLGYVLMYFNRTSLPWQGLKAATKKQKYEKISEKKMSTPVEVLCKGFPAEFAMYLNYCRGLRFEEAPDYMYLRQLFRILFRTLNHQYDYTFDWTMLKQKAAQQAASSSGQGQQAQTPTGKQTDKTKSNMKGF

Structure (SMILES): CCC(C)n1c(NC(=O)c2ccccc2)c(C#N)c2nc3ccccc3nc21 (configuration not stated)
- AC50 [1]: 25.1 µM (inconclusive)

Structure (SMILES): CCN1/C(=C\c2ccc3ccccc3[n+]2CC)Sc2cc(C)ccc21
- EC50 [2]: > 12 µM (not active)
- EC50 [3]: 15.7 µM (active)
- IC50 [4]: 23.5 µM (active)

Structure (SMILES): CCCCCCCCCCOC(=O)C[n+]1c(COc2ccc(C)cc2)n(C)c2ccccc21
- EC50 [5]: 7.92 µM (active)
- EC50 [6]: 16.9 µM (inactive)

Structure (SMILES): O=C(CCl)Oc1ccc2occ(C(=O)c3cccs3)c2c1
- IC50 [7]: > 100 µM (active)

Structure (SMILES): CC[C@@H](CO)NC(=O)[C@@H]1C=C2c3cccc4c3c(cn4C)C[C@H]2N(C)C1 [METHYSERGIDE MALEATE]
- IC50 [8]: > 66 µM (inactive)

Structure (SMILES): CN1CCN(c2nc(C3=C(c4c[nH]c5ccccc45)C(=O)NC3=O)c3ccccc3n2)CC1 [SOTRASTAURIN]
- Ki [9]: > 7.94 µM (inactive)
- Ki [10]: > 10 µM (inactive)
- Ki [11]: > 10 µM (inactive)
- Ki [12]: > 3.16 µM (inactive)
- Ki [13]: > 10 µM (inactive)
- Ki [14]: > 1.58 µM (inactive)
- Ki [15]: > 3.16 µM (inactive)
- Ki [16]: > 7.94 µM (inactive)
- Ki [17]: > 2 µM (inactive)
- Ki [18]: > 3.16 µM (inactive)
- Ki [19]: > 5.01 µM (inactive)
- Ki [20]: > 2 µM (inactive)
- Ki [21]: > 3.98 µM (inactive)
- Ki [22]: > 7.94 µM (inactive)
